Laboratory results as given in patent US9359338B2, “Cyclopropanecarboxamido-substitute aromatic compounds as anti-tumor agents” (Crown Bioscience Inc. (Taiwan), priority 2012, dated 2016).

What follows are molecules tested against KDR kinase (790-1356 AA) (Homo sapiens (Human), UniProt P35968) (assay: Inhibitory activity at KDR kinase (Lance Ultra Ulight-TK assay)). Conditions: not given.
Sequence of KDR kinase (790-1356 AA) (P35968 790-1356): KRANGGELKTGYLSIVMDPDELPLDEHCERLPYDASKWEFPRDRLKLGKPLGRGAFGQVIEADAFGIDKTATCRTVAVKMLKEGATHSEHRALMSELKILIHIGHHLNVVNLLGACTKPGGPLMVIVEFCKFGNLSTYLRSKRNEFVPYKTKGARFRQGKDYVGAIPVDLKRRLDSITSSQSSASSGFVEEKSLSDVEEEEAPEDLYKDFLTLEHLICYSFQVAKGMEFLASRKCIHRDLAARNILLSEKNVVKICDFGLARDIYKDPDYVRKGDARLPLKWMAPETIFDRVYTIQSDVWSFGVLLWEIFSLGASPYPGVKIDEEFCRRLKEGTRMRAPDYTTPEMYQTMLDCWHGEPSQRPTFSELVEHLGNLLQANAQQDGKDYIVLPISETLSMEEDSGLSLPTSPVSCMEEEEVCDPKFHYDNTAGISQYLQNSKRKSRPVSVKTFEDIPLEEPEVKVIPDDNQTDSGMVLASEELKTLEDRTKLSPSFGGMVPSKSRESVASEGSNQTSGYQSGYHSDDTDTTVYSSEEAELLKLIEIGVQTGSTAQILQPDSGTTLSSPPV
Format: biochemical
Procedure: Inhibitory Activity of Compounds at KDR Kinase
• [Experimental method]: Use Lance@Ultra Ulight™-TK assay kit from PerKinElmer to evaluate the inhibitory activity of compounds at KDR kinase. • [Instrument]: PerKinElmer's ENVISION plate reader • [Materials]: Optiplate-384 well plate (PerKinElmer), kinase buffer (50 mM Hepes pH7.5, 0.25 mM EGTA, 2 mM DTT, 0.01% Tween 20, 10 mM Mg^2+, 0.5 mM Mn^2+), KDR kinase (790-1356 AA, Crown Bioscience), KDR kinase substrate (PerKinElmer catalogue # TRF0127-M), Lance@Eu-W1024-anti-phosphotyrosine (PT66) (PerKinElmer, catalogue #AD0068), ATP (Invitrogen), DMSO (Sigma, catalogue #34869), purified water (Millipore, type: Milli-Q). • [Study conditions]: Mix KDR (final concentration: 20 nM) and compound (final DMSO: 0.5%), pre-incubate for 20 min at 30° C.; then add ATP (final concentration: 90 μM) and the substrate (final concentration […]). React for 2 hrs at 30° C. After the reaction, add antibody and reaction for 60 min at 30° C. Read the plate (615 nm, 665 nm), calculate the ratio of the value at 665 nm vs 615 nm and analyze the data. • [Samples]: Compounds in the examples and Sorafenib (positive control) • [Data Analysis]: Use CBIS data analysis software to calculate IC50 values
`O=C(Nc1cccc(C2CC2)c1)Nc1ccc(Oc2ccnc(NC(=O)C3CC3)c2)c(F)c1` [Exe. 057] gave an IC50 of 12 nM.
`O=C(Nc1cc(C2CCN(C3CC3)CC2)cc(C(F)(F)F)c1)Nc1ccc(Oc2ccnc(NC(=O)C3CC3)c2)c(F)c1` [Exe. 060] showed an IC50 of 34.3 nM.
`CN1C(=O)C2(CC2)c2cc(NC(=O)Nc3ccc(Oc4ccnc(NC(=O)C5CC5)c4)cc3)ccc21` [Exe. 066] showed an IC50 of 8 nM.
Molecule `CC(N)c1cc(NC(=O)Nc2ccc(Oc3ccnc(NC(=O)C4CC4)c3)c(F)c2)cc(C(F)(F)F)c1` (stereo not drawn) [Exe. 068] has an IC50 of 15.7 nM.
With `O=C(Nc1cc(NC2CCNCC2)cc(C(F)(F)F)c1)Nc1ccc(Oc2ccnc(NC(=O)C3CC3)c2)c(F)c1` [Exe. 069] the IC50 was 17.1 nM.
Work on `Cc1cc(Oc2cc(NC(=O)C3CC3)ncn2)ccc1NC(=O)Nc1ccc(F)c(C(C)(F)F)c1` [Exe. 071] yielded an IC50 of 13.3 nM.
`Cc1cc(Oc2cc(NC(=O)C3CC3)ncn2)ccc1NC(=O)Nc1ccc(C)c(C(F)(F)F)c1` [Exe. 072] gave an IC50 of 8.9 nM.
`Cc1cc(Oc2cc(NC(=O)C3CC3)ncn2)ccc1NC(=O)Nc1cc(Cl)cc(C(F)(F)F)c1` [Exe. 075] was tested, and the IC50 was 13.1 nM.
`Cc1cc(Oc2cc(NC(=O)C3CC3)ncn2)ccc1NC(=O)Nc1cc(NC2CCN(C)CC2)cc(C(F)(F)F)c1` [Exe. 076] gave an IC50 of 12.5 nM.
In the case of `Cc1cc(Oc2cc(NC(=O)C3CC3)ncn2)ccc1NC(=O)Nc1cc(N2CCCC2)cc(C(F)(F)F)c1` [Exe. 077], the IC50 is reported as 14.3 nM.
In the case of `Cc1cc(Oc2cc(NC(=O)C3CC3)ncn2)ccc1NC(=O)Nc1ccc(NC2CCN(C)CC2)c(C(F)(F)F)c1` [Exe. 078], the IC50 is reported as 13.3 nM.
`Cc1cc(Oc2cc(NC(=O)C3CC3)ncn2)ccc1NC(=O)Nc1cccc(OC(F)(F)F)c1` [Exe. 079] was tested, and the IC50 was 14 nM.
Molecule `Cc1cc(Oc2cc(NC(=O)C3CC3)ncn2)ccc1NC(=O)Nc1cc(OC(F)(F)F)ccc1F` [Exe. 080] has an IC50 of 8.1 nM.
Work on `Cc1cc(Oc2cc(NC(=O)C3CC3)ncn2)ccc1NC(=O)Nc1ccc(F)c(OC(F)(F)F)c1` [Exe. 081] yielded an IC50 of 13.3 nM.
`Cc1cc(Oc2cc(NC(=O)C3CC3)ncn2)ccc1NC(=O)Nc1ccc(Cl)c(OC(F)(F)F)c1` [Exe. 082] showed an IC50 of 6.8 nM.
`Cc1cc(Oc2cc(NC(=O)C3CC3)ncn2)ccc1NC(=O)Nc1cc(F)cc(C(C)(F)F)c1` [Exe. 083] gave an IC50 of 14.3 nM.

These molecules were tested on pERK in MDA-MB-231 cells (assay: Inhibitory activity at pERK (In Cell Western, MDA-MB-231 cells)). Conditions: Homo sapiens, MDA-MB-231, MDA-MB-231 cells; read-out: MDA-MB-231 pERK IC50.
Format: cell-based
Procedure: Inhibitory Activity of Compounds at pERK
When the cells reach 80% confluency, collect cells by trypsinization and centrifugation at 800 rpm for 3 minutes. Resuspend cells with appropriate volume of medium and count cell numbers. Adjust cell concentration to 70000 cells/mL, and split 100 μL cell suspension per well into 96-well plates. Transfer the plates into cell culture incubator (37° C., 5% CO2) and incubate cells overnight. Discard the medium, wash with PBS once, Prepare compound serial dilutions in culture medium with total 8 compound concentrations at 3-fold serial dilutions (the final top concentration starts from 30 μM). Dispense 75 μL DMEM medium (with 0.1% BSA) and 25 μL of each test compound dilution into corresponding wells with DMSO at 0.3% final concentration. Continue incubating cells in cell culture incubator for additional 2 hrs at 37° C., 5% CO2. Discard culture medium, and wash cells once with PBS. Add 100 μL of 4% formaldehyde solution to each well and fix for 20 min. Discard the formaldehyde, then add 100 μL ice-cold 100% methanol at 4° C. for 20 min. Discard methanol, wash with PBS three times. Add to each well 100 μL of 2% BSA solution, seal for 30 min at room temperature. Discard the BSA solution, add to each well 50 μL of the 1st antibody solution (prepared with 2% BSA, 1:250 dilution), incubate at 4° C. overnight. Discard the 1^St antibody solution, wash with PBS four times. Add to each well […] the 2nd antibody solution (prepared with 1% BSA, 1:1000 dilution), incubate at room temperature for 1 hr. Discard the 2nd antibody solution, wash with PBS four times, add to each well 100 μL PI solution (1.5 μM), incubate at room temperature for 30 min. Use Acumen (TPP) to measure the fluorescence. • [Samples]: Compounds in the examples and sorafenib (positive control) • [Data Analysis]: Use CBIS data analysis software to calculate IC50 values
Molecule `O=C(Nc1cccc(C2CC2)c1)Nc1ccc(Oc2ccnc(NC(=O)C3CC3)c2)c(F)c1` [Exe. 057] has an IC50 of 85 nM.
`O=C(Nc1cc(C2CCN(C3CC3)CC2)cc(C(F)(F)F)c1)Nc1ccc(Oc2ccnc(NC(=O)C3CC3)c2)c(F)c1` [Exe. 060] was tested, and the IC50 was 324 nM.
`CN1C(=O)C2(CC2)c2cc(NC(=O)Nc3ccc(Oc4ccnc(NC(=O)C5CC5)c4)cc3)ccc21` [Exe. 066] showed an IC50 of 16 nM.
In the case of `CC(N)c1cc(NC(=O)Nc2ccc(Oc3ccnc(NC(=O)C4CC4)c3)c(F)c2)cc(C(F)(F)F)c1` (stereo not drawn) [Exe. 068], the IC50 is reported as 8.4 nM.
In the case of `O=C(Nc1cc(NC2CCNCC2)cc(C(F)(F)F)c1)Nc1ccc(Oc2ccnc(NC(=O)C3CC3)c2)c(F)c1` [Exe. 069], the IC50 is reported as 337 nM.
Work on `Cc1cc(Oc2cc(NC(=O)C3CC3)ncn2)ccc1NC(=O)Nc1ccc(F)c(C(C)(F)F)c1` [Exe. 071] yielded an IC50 of 100 nM.
Molecule `Cc1cc(Oc2cc(NC(=O)C3CC3)ncn2)ccc1NC(=O)Nc1ccc(C)c(C(F)(F)F)c1` [Exe. 072] has an IC50 of 12 nM.
`Cc1cc(Oc2cc(NC(=O)C3CC3)ncn2)ccc1NC(=O)Nc1cc(Cl)cc(C(F)(F)F)c1` [Exe. 075] gave an IC50 of 420 nM.
In the case of `Cc1cc(Oc2cc(NC(=O)C3CC3)ncn2)ccc1NC(=O)Nc1cc(NC2CCN(C)CC2)cc(C(F)(F)F)c1` [Exe. 076], the IC50 is reported as 83 nM.
Work on `Cc1cc(Oc2cc(NC(=O)C3CC3)ncn2)ccc1NC(=O)Nc1cc(N2CCCC2)cc(C(F)(F)F)c1` [Exe. 077] yielded an IC50 of 169 nM.
For `Cc1cc(Oc2cc(NC(=O)C3CC3)ncn2)ccc1NC(=O)Nc1ccc(NC2CCN(C)CC2)c(C(F)(F)F)c1` [Exe. 078], the IC50 was 28 nM.
Work on `Cc1cc(Oc2cc(NC(=O)C3CC3)ncn2)ccc1NC(=O)Nc1cccc(OC(F)(F)F)c1` [Exe. 079] yielded an IC50 of 80 nM.
For `Cc1cc(Oc2cc(NC(=O)C3CC3)ncn2)ccc1NC(=O)Nc1cc(OC(F)(F)F)ccc1F` [Exe. 080], the IC50 was 29 nM.
`Cc1cc(Oc2cc(NC(=O)C3CC3)ncn2)ccc1NC(=O)Nc1ccc(F)c(OC(F)(F)F)c1` [Exe. 081] was tested, and the IC50 was 104 nM.
Work on `Cc1cc(Oc2cc(NC(=O)C3CC3)ncn2)ccc1NC(=O)Nc1ccc(Cl)c(OC(F)(F)F)c1` [Exe. 082] yielded an IC50 of 36 nM.
`Cc1cc(Oc2cc(NC(=O)C3CC3)ncn2)ccc1NC(=O)Nc1cc(F)cc(C(C)(F)F)c1` [Exe. 083] showed an IC50 of 609 nM.

The molecules below were run on PLC-PRF-5 cells (assay: Inhibition of proliferation of PLC-PRF-5 cells (ATPlite)). Conditions: Homo sapiens, PLC-PRF-5, PLC-PRF-5 cells; read-out: PLC-PRF-5 cell proliferation IC50.
Format: cell-based
Description: Inhibitory Activity of Compounds to the Proliferation of PLC-PRF-5 Cells
• [experimental Method]: Use PerKinElmer's ATPlite™ Luminescence ATP Detection Assay System to evaluate the inhibitory activity of compounds to the proliferation of PLC-PRF-5 cells. • [Instruments]: ENVISION plate reader (PerKinElmer) and centrifuge (Thermo Scientific, Sorvall ST16R) • [material]: PLC-PRF-5 cells (ATCC), 96-well plate (Nunc, #165305), DMEM medium (Gibco, #11965-092), PBS (Invitrogen, #10010023), fetal bovine serum (Gibco, #16000044), DMSO (Sigma, #D2650), ATPlite™ Luminescence ATP Detection Assay System (PerkinElmer, #6016949), purified water (Millipore, type: Milli-Q). • [Protocol]: Grow PLC-PRF-5 cells in DMEM supplemented with 10% FBS. When the cells reach 80% confluency, collect cells by trypsinization and centrifugation at 800 rpm for 3 min. Resuspend cells with appropriate volume of medium and count cell numbers. Adjust cell concentration to 50000 cells/mL, and split 160 μL cell suspension per well into 96-well plates. Transfer the plates into cell culture incubator (37° C., 5% CO2) and incubate cells for 2 hrs. Prepare compound serial dilutions in culture medium with total 8 compound concentrations at 3-fold serial dilutions (the final top concentration starts from 30 μM). Dispense 40 μL of each test compound dilution into corresponding wells with DMSO at 0.3% final concentration. Continue incubating cells in cell culture incubator for additional 96 hrs at 37° C., 5% CO2. Discard culture medium, and wash cells once with PBS. Add 50 μL cell lysis buffer per well and shake plates for 5 min at room temperature to ensure complete lysis of cells. Then add 50 μL of substrate solution and shake plates for 1 min at room temperature. Allow the plates to incubate at room temperature for 5 min, followed by recording the luminescence signals using Envision, and subsequent data analysis. • [Samples]: Compounds in the examples and Sorafenib (positive control) • [Data analysis]: Use CBIS data analysis software to calculate IC50 values
Molecule `O=C(Nc1cccc(C2CC2)c1)Nc1ccc(Oc2ccnc(NC(=O)C3CC3)c2)c(F)c1` [Exe. 057] has an IC50 of 250 nM.
`O=C(Nc1cc(C2CCN(C3CC3)CC2)cc(C(F)(F)F)c1)Nc1ccc(Oc2ccnc(NC(=O)C3CC3)c2)c(F)c1` [Exe. 060] gave an IC50 of 1510 nM.
`CN1C(=O)C2(CC2)c2cc(NC(=O)Nc3ccc(Oc4ccnc(NC(=O)C5CC5)c4)cc3)ccc21` [Exe. 066] was tested, and the IC50 was 2500 nM.
Molecule `CC(N)c1cc(NC(=O)Nc2ccc(Oc3ccnc(NC(=O)C4CC4)c3)c(F)c2)cc(C(F)(F)F)c1` (stereo not drawn) [Exe. 068] has an IC50 of 325 nM.
`O=C(Nc1cc(NC2CCNCC2)cc(C(F)(F)F)c1)Nc1ccc(Oc2ccnc(NC(=O)C3CC3)c2)c(F)c1` [Exe. 069] showed an IC50 of 10500 nM.
Work on `Cc1cc(Oc2cc(NC(=O)C3CC3)ncn2)ccc1NC(=O)Nc1ccc(F)c(C(C)(F)F)c1` [Exe. 071] yielded an IC50 of 20500 nM.
`Cc1cc(Oc2cc(NC(=O)C3CC3)ncn2)ccc1NC(=O)Nc1ccc(C)c(C(F)(F)F)c1` [Exe. 072] was tested, and the IC50 was 7000 nM.
In the case of `Cc1cc(Oc2cc(NC(=O)C3CC3)ncn2)ccc1NC(=O)Nc1cc(Cl)cc(C(F)(F)F)c1` [Exe. 075], the IC50 is reported as 20000 nM.
Work on `Cc1cc(Oc2cc(NC(=O)C3CC3)ncn2)ccc1NC(=O)Nc1cc(NC2CCN(C)CC2)cc(C(F)(F)F)c1` [Exe. 076] yielded an IC50 of 5600 nM.
`Cc1cc(Oc2cc(NC(=O)C3CC3)ncn2)ccc1NC(=O)Nc1cc(N2CCCC2)cc(C(F)(F)F)c1` [Exe. 077] gave an IC50 of 16500 nM.
For `Cc1cc(Oc2cc(NC(=O)C3CC3)ncn2)ccc1NC(=O)Nc1ccc(NC2CCN(C)CC2)c(C(F)(F)F)c1` [Exe. 078], the IC50 was 879 nM.
In the case of `Cc1cc(Oc2cc(NC(=O)C3CC3)ncn2)ccc1NC(=O)Nc1cccc(OC(F)(F)F)c1` [Exe. 079], the IC50 is reported as 6000 nM.
Molecule `Cc1cc(Oc2cc(NC(=O)C3CC3)ncn2)ccc1NC(=O)Nc1cc(OC(F)(F)F)ccc1F` [Exe. 080] has an IC50 of 3040 nM.
Work on `Cc1cc(Oc2cc(NC(=O)C3CC3)ncn2)ccc1NC(=O)Nc1ccc(F)c(OC(F)(F)F)c1` [Exe. 081] yielded an IC50 of 16000 nM.
`Cc1cc(Oc2cc(NC(=O)C3CC3)ncn2)ccc1NC(=O)Nc1ccc(Cl)c(OC(F)(F)F)c1` [Exe. 082] showed an IC50 of 22500 nM.
Molecule `Cc1cc(Oc2cc(NC(=O)C3CC3)ncn2)ccc1NC(=O)Nc1cc(F)cc(C(C)(F)F)c1` [Exe. 083] has an IC50 of 20400 nM.
